Data published in patent publication US11786503B2, “Pharmaceutical compositions and methods for countering chemotherapy induced cardiotoxicity” (Auransa Inc., priority 2016, dated 2023).
Where two headings read alike, the source gives them in different places. One block for each compound: values may come before it.

Tests used:
[1] = system: Human iPSC-derived cardiomyocytes; test: doxorubicin-induced mitochondrial toxicity, TMRM signal, 2 days (Example 2); format: cell-based; settings: co-treated with 1.25 μM doxorubicin and 79 μM myricetin, compared to 1.25 μM doxorubicin alone
Procedure: Following treatment, the samples were incubated with a tetramethylrhodamine methyl ester (TMRM) dye to indicate mitochondrial health, and Hoechst 33342 to identify cell nuclei. Cells were imaged using the INCell Analyzer2200.

[2] = system: Human iPSC-derived cardiomyocytes; test: contractility, beat rate by Pulse video, 3 days (Example 3); format: cell-based; settings: 72 hours; for beat rate: mock-treated 33.33
[3] = system: Cardiomyocytes (human iPSC-derived); test: doxorubicin-induced apoptosis, CellEvent dye, 3 days (Example 4); format: cell-based; settings: Cardiomyocyte, 72 h, co-treated with 1 μM of doxorubicin, read-out: IC50 for protective effects against apoptosis
Procedure: Cardiomyocytes were prepared as described above. […] Following treatment, the samples were incubated with a CellEvent dye to indicate apoptosis-positive cells, and a second dye to identify cell nuclei.

[4] = system: Human iPSC-derived cardiomyocytes; test: cells; format: cell-based; settings: Cardiomyocyte, 0.5 μM of Doxorubicin, 72 hours, read-out: EC50 for rescue from DOX-induced cell death
Procedure: To measure the rescue rates from the DOX-induced cell death in cardiomyocytes, the protective effect of myricetin was directly compared with that of dexraxozane (DEX; standard of care). Human iPSC-derived cardiomyocytes were treated with 0.5 μM of Doxorubicin and increasing concentrations of myricetin (MYR, circle) or dexraxozane (DEX, square). […] Cells were imaged using INCell Analyzer2200 (GE). […] (n=3).
Next, the ability of MYR to confer cardioprotection was directly compared with that of DHM as these two compounds display distinctive property in their structures and TOPOI inhibition activity. […] Human iPSC-derived cardiomyocytes were treated with 0.5 μM of Doxorubicin and increasing concentrations of myricetin (MYR, circle) or dihydromyricetin (DHM, triangle).

[5] = system: Human iPSC-derived cardiomyocytes; test: DOX-induced contractility dysfunction, Pulse video, 48 hours (Example 7); format: cell-based
[6] = system: Human iPSC-derived cardiomyocytes; test: DOX-induced DNA double strand break, γH2AX immunostaining; format: cell-based; settings: 48 hours; for IC50: Homo sapiens, Cardiomyocyte, read-out: IC50, concentration at which DOX-induced double strand break was reduced to 50%, 0.5 μM of doxorubicin
[7] = system: Human iPSC-derived cardiomyocytes; test: DOX-induced sarcomere disruption, Cardiac Troponin T immunostaining (Example 8); format: cell-based; settings: DOX (0.5 μM) plus MYR (100 μM), 72 hours
Procedure: DOX-induced cell death is often manifested by severity of structural disruptions of cardiomyocyte organization (e.g., sarcomere). To assess the protective effect of MYR against DOX-induced sarcomere disruption, human iPSC-derived cardiomyocytes were treated with DMSO, DOX (0.5 μM), or DOX plus MYR (100 μM). After 72 hours of treatment, cells were immunostained with antibody against Cardiac Troponin T (Abcam) to show sarcomeric organization in of the heart cells.

TOPOIIβ mRNA expression = TOPOIIβ mRNA expression in cardiomyocytes; format: cell-based; settings: for TOPOIIβ mRNA expression: compound alone, DOX at 24 and 48 hours
TOPOIIα expression = test: TOPOIIα mRNA expression in cardiomyocytes; format: cell-based
[8] = system: Doxorubicin treated human iPSC-derived cardiomyocytes; test: iPSC-CM protection by myricetin analogs (Table 1); format: cell-based; settings: Homo sapiens
[9] = system: Human stem cell derived cardiomyocytes; test: sunitinib-induced cell death (Example 14); format: cell-based; settings: sunitinib (10 μM) plus MYR (1 to 100 μM), 72 hours
[10] = system: sorafenib treated cardiomyocytes; test: sorafenib-induced contractile dysfunction (Example 14); format: cell-based, human; settings: 5 μM sorafenib treated cardiomyocytes
cardiomyocytes = test: bortezomib-induced cardiotoxicity (Example 14); format: cell-based, human; settings: 100 μM myricetin
C57BL/16 mice = test: acute anthracycline-induced cardiotoxicity model, echocardiography (Example 16); format: in vivo
From the text: An acute anthracycline-induced cardiotoxicity model was established in 9-10 week old C57BL/16 mice obtained from The Jackson Laboratory. […] General health of the animals was monitored on a daily basis throughout the course of the study. […] Left ventricular (LV) M-mode images were obtained in the two-dimensional short axis view close to the papillary muscles. Tracings of endocardial tissue during systole and diastole were made off line.

[11] = system: human induced pluripotent stem cell-derived cardiomyocytes (iPSC-CM)
A549 cells = test: doxorubicin-mediated death of lung cancer cells, CellTiter-Glo (Example 22); format: cell-based; settings: co-treated with increasing concentrations of doxorubicin, 72 hours
Procedure: A549 cells (lung cancer) were cultured for 1 day before performing experiments. […] XLFit was used for curve fitting.

[12] = system: cardiomyocytes differentiated from induced pluripotent stem cells; test: acute toxicity on electrophysiology, MEA beat period and field potential duration (Example 23); format: cell-based; settings: lower drug concentration, at least 20 minutes
Procedure: Samples were either mock-treated with 0.1% DMSO, or treated with increasing concentrations of the indicated drug for at least 20 minutes. Cardiomyocytes were treated with the hERG potassium channel blocker E4031 as a control. Following treatment, the beat period and field potential duration (FPD) were measured in each sample using the MEA.

MDA-MB-231 cells [13] = settings: co-treated with increasing concentrations of doxorubicin, 72 hours
[14] = system: cardiomyocytes differentiated from induced pluripotent stem cells; test: long term toxicity on electrophysiology, active electrodes (Example 24); format: cell-based; settings: for decrease in the number of active electrodes relative to the mock-treated sample: various concentrations, at least 5 days
Procedure: Samples were either mock-treated with 0.1% DMSO, or treated with various concentrations of the indicated drug. Following treatment, the percentage of active electrodes in each sample was measured for at least 5 days. Percentage of active electrodes was quantified and graphed in a time course.

topoisomerase IIβ = topoisomerase IIβ (Homo sapiens, UniProt Q02880); settings: 100 μM, 24 hours, iPSC-CMs
topoisomerase IIβ, sequence (Q02880 whole entry): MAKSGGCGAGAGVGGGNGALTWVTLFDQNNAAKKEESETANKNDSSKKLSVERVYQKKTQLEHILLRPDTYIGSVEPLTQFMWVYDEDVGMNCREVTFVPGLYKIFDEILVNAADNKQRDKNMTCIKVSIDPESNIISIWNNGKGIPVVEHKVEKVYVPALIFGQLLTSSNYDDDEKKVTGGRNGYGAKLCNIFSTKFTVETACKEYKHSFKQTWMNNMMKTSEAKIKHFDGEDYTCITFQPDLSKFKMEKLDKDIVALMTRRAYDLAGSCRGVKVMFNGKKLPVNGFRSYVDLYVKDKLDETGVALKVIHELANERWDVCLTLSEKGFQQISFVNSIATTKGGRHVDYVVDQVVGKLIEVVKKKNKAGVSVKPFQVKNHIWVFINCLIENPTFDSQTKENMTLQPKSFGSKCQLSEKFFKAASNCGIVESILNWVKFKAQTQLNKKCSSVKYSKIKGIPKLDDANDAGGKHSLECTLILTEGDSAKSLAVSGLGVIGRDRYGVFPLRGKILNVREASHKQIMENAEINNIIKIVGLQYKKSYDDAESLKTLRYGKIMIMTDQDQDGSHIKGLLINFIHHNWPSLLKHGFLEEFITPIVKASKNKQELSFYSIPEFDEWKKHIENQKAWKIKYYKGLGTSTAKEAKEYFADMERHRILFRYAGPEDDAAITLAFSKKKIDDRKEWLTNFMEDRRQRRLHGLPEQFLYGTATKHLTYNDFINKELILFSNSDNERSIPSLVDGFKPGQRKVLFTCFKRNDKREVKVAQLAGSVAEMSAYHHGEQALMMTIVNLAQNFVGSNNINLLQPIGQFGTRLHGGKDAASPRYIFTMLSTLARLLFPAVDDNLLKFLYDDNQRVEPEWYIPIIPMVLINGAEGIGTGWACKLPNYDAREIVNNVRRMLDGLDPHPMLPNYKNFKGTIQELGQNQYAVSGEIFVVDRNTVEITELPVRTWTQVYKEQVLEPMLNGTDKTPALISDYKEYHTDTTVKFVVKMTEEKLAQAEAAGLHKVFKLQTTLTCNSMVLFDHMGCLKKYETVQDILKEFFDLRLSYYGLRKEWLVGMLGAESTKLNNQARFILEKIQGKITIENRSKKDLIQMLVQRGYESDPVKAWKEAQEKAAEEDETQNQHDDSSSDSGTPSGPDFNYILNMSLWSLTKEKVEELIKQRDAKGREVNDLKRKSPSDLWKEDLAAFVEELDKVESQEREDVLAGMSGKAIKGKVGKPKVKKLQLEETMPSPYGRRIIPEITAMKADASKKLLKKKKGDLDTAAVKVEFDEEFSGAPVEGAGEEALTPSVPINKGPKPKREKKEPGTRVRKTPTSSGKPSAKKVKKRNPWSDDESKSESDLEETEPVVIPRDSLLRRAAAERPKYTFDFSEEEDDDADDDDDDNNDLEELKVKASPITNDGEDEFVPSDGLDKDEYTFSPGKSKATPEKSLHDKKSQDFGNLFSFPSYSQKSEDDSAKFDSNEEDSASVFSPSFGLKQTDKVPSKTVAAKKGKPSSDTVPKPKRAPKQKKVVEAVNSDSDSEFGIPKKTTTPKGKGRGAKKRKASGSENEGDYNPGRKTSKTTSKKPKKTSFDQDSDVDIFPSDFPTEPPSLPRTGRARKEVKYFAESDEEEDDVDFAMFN

TOPOIIα = target: T1, TOPOIIα (Homo sapiens, UniProt P11388); test: kDNA decatenation assay, TOPOIIα; format: biochemical; settings: even at extreme concentrations (>200 μM);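 also: kDNA incubated with one unit of TOPOIIα at 37 °C for 30 min, decatenated product resolved on 1% agarose gel, inhibition from relative band intensity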
T1 construct: purchased Inspiralis
T1 sequence (P11388 whole entry): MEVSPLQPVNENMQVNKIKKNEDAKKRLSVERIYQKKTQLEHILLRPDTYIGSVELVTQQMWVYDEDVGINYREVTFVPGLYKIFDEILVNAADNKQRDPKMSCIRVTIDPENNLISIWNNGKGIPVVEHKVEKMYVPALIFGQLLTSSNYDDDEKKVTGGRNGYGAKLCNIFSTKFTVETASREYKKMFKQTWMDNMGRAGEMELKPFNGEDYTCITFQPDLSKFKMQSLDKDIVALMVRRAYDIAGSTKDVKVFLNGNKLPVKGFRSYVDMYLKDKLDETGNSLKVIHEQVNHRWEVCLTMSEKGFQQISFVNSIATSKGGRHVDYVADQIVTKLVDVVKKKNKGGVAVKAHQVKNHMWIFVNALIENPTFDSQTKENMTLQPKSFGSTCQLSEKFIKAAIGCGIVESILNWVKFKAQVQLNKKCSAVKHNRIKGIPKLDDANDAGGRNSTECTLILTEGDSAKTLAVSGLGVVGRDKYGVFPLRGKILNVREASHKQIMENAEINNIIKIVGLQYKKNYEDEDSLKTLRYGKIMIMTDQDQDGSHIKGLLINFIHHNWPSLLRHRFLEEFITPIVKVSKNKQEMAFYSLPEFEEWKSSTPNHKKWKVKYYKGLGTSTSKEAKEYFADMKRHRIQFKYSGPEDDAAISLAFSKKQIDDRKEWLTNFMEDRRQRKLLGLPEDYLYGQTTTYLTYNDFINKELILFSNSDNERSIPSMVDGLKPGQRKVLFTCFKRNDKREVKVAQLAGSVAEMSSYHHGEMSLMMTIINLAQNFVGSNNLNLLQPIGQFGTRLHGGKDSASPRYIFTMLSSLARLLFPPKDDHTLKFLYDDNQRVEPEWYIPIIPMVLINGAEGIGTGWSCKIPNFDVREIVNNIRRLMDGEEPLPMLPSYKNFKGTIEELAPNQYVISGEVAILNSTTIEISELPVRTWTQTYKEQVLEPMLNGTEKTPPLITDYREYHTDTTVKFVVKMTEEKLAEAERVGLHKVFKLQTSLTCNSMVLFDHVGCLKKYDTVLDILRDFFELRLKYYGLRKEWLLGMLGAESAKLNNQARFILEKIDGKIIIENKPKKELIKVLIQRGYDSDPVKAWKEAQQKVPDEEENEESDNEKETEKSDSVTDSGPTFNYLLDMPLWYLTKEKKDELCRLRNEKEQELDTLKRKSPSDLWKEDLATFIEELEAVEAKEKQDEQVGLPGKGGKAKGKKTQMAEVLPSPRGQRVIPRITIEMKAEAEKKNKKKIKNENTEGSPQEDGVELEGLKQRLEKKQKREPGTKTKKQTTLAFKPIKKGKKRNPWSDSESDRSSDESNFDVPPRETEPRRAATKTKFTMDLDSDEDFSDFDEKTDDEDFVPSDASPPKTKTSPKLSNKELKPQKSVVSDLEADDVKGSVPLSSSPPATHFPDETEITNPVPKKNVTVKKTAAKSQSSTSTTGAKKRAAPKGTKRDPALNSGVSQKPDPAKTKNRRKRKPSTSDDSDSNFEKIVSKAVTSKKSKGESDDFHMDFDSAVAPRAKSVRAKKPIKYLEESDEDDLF

TOPOIIβ = target: T2, TOPOIIβ (Homo sapiens, UniProt Q02880); test: kDNA decatenation assay, TOPOIIβ; format: biochemical; settings: even at extreme concentrations (>200 μM);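 also: kinetoplast DNA incubated with one unit of TOPOIIβ at 37 °C for 30 min, decatenated product resolved on 1% agarose gel, inhibition scored from relative band intensity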
T2 construct: purchased Inspiralis
T2 sequence (Q02880 whole entry): as the sequence (Q02880 whole entry) above

[15] = system: cardiomyocytes differentiated from induced pluripotent stem cells; test: long-term mitochondrial health, TMRM, 7 days (Example 19); format: cell-based, human; settings: 1 μM of doxorubicin
[16] = system: cardiomyocytes differentiated from induced pluripotent stem cells; test: electrophysiological activity with doxorubicin, active electrodes (Example 20); format: cell-based, human
Procedure: Samples were either mock-treated with 0.1% DMSO, treated with 1 μM doxorubicin, or co-treated with 1 μM doxorubicin and various concentrations of vitexin (e.g., 11.6 μM, 37 μM, or 116 μM). Following treatment, the percentage of active electrodes in each sample was measured for 72 hours. Percentage of active electrodes was quantified and graphed in a time course (FIG. 28A). The average number of active electrodes per well was quantified and graphed at 30 hours after the treatment (FIG. 28B, n=6, standard deviation is shown as error bars).

MDA-MB-231 cells [17] = test: cells; settings: Homo sapiens, MDA-MB-231, 72 h, read-out: cell viability LC50 of doxorubicin
[18] = MYR 40 mg/kg i.p. 30 minutes prior to doxorubicin 20 mg/kg, day 5
[19] = MYR 40 mg/kg i.p., 2-fold higher than doxorubicin
[20] = Doxorubicin 20 mg/kg single intraperitoneal injection, day 5 vs baseline

Compound: O=c1c(O)c(-c2cc(O)c(O)c(O)c2)oc2cc(O)cc(O)c12 [Compound 1, 3,5,7,3′,4′,5′-hexahydroxyflavone]
TMRM signal (mitochondrial health) [1]: greater TMRM signal
beat rate ([2]; 79 μM myricetin alone): 39.33 beats per minute
beat rate ([2]; co-treated with 79 μM myricetin and 1.25 μM doxorubicin): 37.33 beats per minute
IC50 [3]: 20.5 µM
EC50 [4]: 7.5 µM
correction of DOX-induced contractile dysfunction ([5]; DOX (0.5 μM) plus MYR (100 μM), as compared to DEX (100 μM)): significantly corrected
protection against DOX-induced double strand break (γH2AX-positive cells) ([6]; DOX (0.5 μM) plus 100 μM agent): significant protection
IC50 [6]: 5.28 µM
protection against DOX-induced sarcomere disruption [7]: significant protection
TOPOII expression (TOPOIIβ) in the presence of myricetin (TOPOIIβ mRNA expression; DOX plus myricetin): restored to a level close to normal
TOPOIIβ mRNA expression (TOPOIIβ mRNA expression): did not have any effect
expression of TOPOIIα (TOPOIIα expression; myricetin in the presence of DOX): further repressed
EC50 ([8]; Cardiomyocyte, approximate, read-out: EC50 for cardioprotection): 10 to 20 µM
EC50 ([8]; iPSC-CM, read-out: iPSC-CM protection EC50): 14.5 µM
Emax ([8]; iPSC-CM, read-out: iPSC-CM protection Max Effect (%)): 78%
protection against sunitinib-induced cell death [9]: displayed protection
cardiac dysfunction corrected [10]: more than 80%
rescue of bortezomib-induced cardiotoxicity (cardiomyocytes): rescued
improvement of EF (C57BL/16 mice; [18]): 10%
improvement of FS (C57BL/16 mice; [18]): 7%
rescue of EF dysfunction caused by doxorubicin (C57BL/16 mice; [19]): 49%
rescue of FS dysfunction caused by doxorubicin (C57BL/16 mice; [19]): 52%
difference in the number of total cells, as compared to mock-treated control [11]: no significant difference
reduction the number of total cells, as compared to mock-treated control ([11]; co-treated with myricetin and 1.25 μM doxorubicin, 72 hours): 27.57%

Compound: CC(=O)N[C@@H](CS)C(=O)O [N-acetyl cysteine]
difference in the percentage of cell death vs doxorubicin without protective agent (A549 cells): no significant difference
difference in beat period or field potential duration vs control samples [12]: no appreciable difference
difference in the percentage of cell death vs doxorubicin without protective agent (MDA-MB-231 cells [13]): no significant difference

Compound: Nc1c(Br)cc(Br)cc1CN[C@H]1CC[C@H](O)CC1 [ambroxol]
difference in the percentage of cell death vs doxorubicin without protective agent (A549 cells): no significant difference
difference in beat period or field potential duration vs control samples [12]: no appreciable difference
decrease in the number of active electrodes relative to the mock-treated sample [14]: no observable decrease
difference in the percentage of cell death vs doxorubicin without protective agent (MDA-MB-231 cells [13]): no significant difference

topoisomerase IIβ protein levels (topoisomerase IIβ): marked disappearance of TOPOIIβ
Compound: C[C@@H](CN1CC(=O)NC(=O)C1)N1CC(=O)NC(=O)C1 [dexrazoxane]
difference in the percentage of cell death vs doxorubicin without protective agent (A549 cells): no significant difference
difference in beat period or field potential duration vs control samples [12]: no appreciable difference
reduction in the number of active electrodes ([14]; 167 μM dexrazoxane, about 2 days post-treatment): ~25%
reduction in the number of active electrodes ([14]; 167 μM dexrazoxane, about 3 days post-treatment): ~50%
reduction in the number of active electrodes ([14]; 500 μM dexrazoxane, about 2 days post-treatment): ~50%
reduction in the number of active electrodes ([14]; 500 μM dexrazoxane, about 3 days post-treatment): ~100%
difference in the percentage of cell death vs doxorubicin without protective agent (MDA-MB-231 cells [13]): no significant difference

TOPOIIα enzymatic activity inhibition (TOPOIIα): did not inhibit
TOPOIIβ enzymatic activity inhibition (TOPOIIβ): did not inhibit
Compound: O=C1c2c(O)cc(O)cc2O[C@H](c2cc(O)c(O)c(O)c2)[C@H]1O [dihydromyricetin]
IC50 [3]: 40.5 µM
EC50 [4]: 14 µM
IC50 [6]: 11.3 µM

Compound: COc1cccc2c1C(=O)c1c(O)c3c(c(O)c1C2=O)C[C@@](O)(C(=O)CO)C[C@@H]3O[C@H]1C[C@H](N)[C@H](O)[C@H](C)O1 [doxorubicin, reference compound]
contraction ([2]; 1.25 μM doxorubicin, in the absence of myricetin): completely inhibited contraction
dysfunction in cardiomyocyte contraction ([5]; DOX (0.5 μM)): reduction in beating, duration, and peak height
TOPOIIβ mRNA expression (TOPOIIβ mRNA expression): significantly repressed
expression of TOPOIIα (TOPOIIα expression; DOX alone, over time): slowly repressed
decrease of ejection fraction (EF) (C57BL/16 mice; [20]): 19%
decrease of fractional shortening (FS) (C57BL/16 mice; [20]): 15%
mitochondrial toxicity (decrease in TMRM-positive cells) vs mock-treated [15]: increase in mitochondrial toxicity
average number of active electrodes ([16]; 1 μM doxorubicin in the absence of vitexin, 30 hours): about 2 active electrodes
decrease in the number of active electrodes ([16]; 1 μM doxorubicin, in the absence of vitexin, 24 hours after drug treatment): ~50%
decrease in the number of active electrodes, relative to time zero ([16]; 1 μM doxorubicin, in the absence of vitexin, 30 hours after drug treatment): ~95%
reduction in the number of total cells, as compared to mock-treated control ([11]; human, 72 h, 1.25 μM): 62.6%
CC50 (MDA-MB-231 cells [17]): 0.53 µM

Compound: Nc1ccc(O)c(C(=O)O)c1 [mesalamine]
difference in the percentage of cell death vs doxorubicin without protective agent (A549 cells): no significant difference
decrease in the number of active electrodes relative to the mock-treated sample [14]: no observable decrease
difference in the percentage of cell death vs doxorubicin without protective agent (MDA-MB-231 cells [13]): no significant difference

Compound: C[C@@H]1O[C@@H](Oc2c(-c3cc(O)c(O)c(O)c3)oc3cc(O)cc(O)c3c2=O)[C@H](O)[C@H](O)[C@H]1O [myricitrin]
IC50 [3]: 38.5 µM
